# Measurements reported in patent US10308608B2, “Histone deacetylase inhibitors” (BIOMARIN PHARMACEUTICAL INC., priority 2015, dated 2019).
# Structures can show the parent of a compound that is named as a salt.
# Tested on: Frataxin (FXN) mRNA
# Experiment: Effect of HDAC inhibitors on frataxin (FXN) mRNA expression, qRT-PCR in compound-treated iPSC derived neuronal cells
# Format: cell-based
# Details: compound concentration of 0.625 μM, 24 h incubation, dihydrochloride, 0.625 µM
# Procedure: Effect of HDAC Inhibitors on Frataxin (FXN) mRNA Expression
# Method: mRNA quantification of compound-treated iPSC derived neuronal cells Neuronal stem cells were cultured in Neurobasal A medium (Life technologies #10888022) supplemented with N2, B27 (Life technologies #17502-048 and #17504-044), L-glutamine (Life technologies #25030081), supplemented with 20 ng/ml EGF (R&D Systems #236-EG) and 20 ng/ml bFGF (BioPioneer # HRP-0011). Neuronal differentiation was initiated by removing growth factors and culturing cells in Neurobasal A with N2 and B27. Cells were allowed to differentiate for 16 days. HDAC inhibitory compound was then added and incubate for 24 h. RNA isolation was performed using the RNeasy Plus mini kit (QIAgen #74134) using a QIAcube instrument per manufacturer's instructions. qRT-PCR was performed using qScript One-Step SYBR Green qRT-PCR Kit (Quanta Biosciences 170-8893BR) with the following conditions: 20 minutes at 50° C., 5 minutes at 95° C., and then 40 cycles of 20 seconds at 95° C., 20 seconds at 55° C., 30 seconds at 72° C. The primer sequences to detect expression of FXN were: 5′-[…]-3′ and 5′-[…]-3′.
# The data for the following compounds, for FXN mRNA fold induction at a compound concentration of 0.625 μM are shown in Table 1, where A<1, 1<B<2, 2<C<3, 3<D<5, E>5.
row,SMILES,FXN mRNA fold induction
1,"Nc1ccccc1NC(=O)c1ccc(OC2CCCN(CC3CCCCC3)CC2)cc1 (single isomer, unassigned) [Compound 40B, N-(2-aminophenyl)-4-((1-(cyclohexylmethyl)azepan-4-yl)oxy)benzamide dihydrochloride]",C (2<C<3)

# Same assay, conditions: iPSC, 24 h, compound concentration of 0.625 μM, 24 h incubation, read-out: FXN mRNA fold induction
row,SMILES,fold induction at 0.625 µM
1,"Nc1ccccc1NC(=O)c1ccc(OC2CCCN(CC3CCCCC3)CC2)cc1 (single isomer, unassigned) [Compound 40A, N-(2-aminophenyl)-4-((1-(cyclohexylmethyl)azepan-4-yl)oxy)benzamide dihydrochloride]",1 to 2
2,"Nc1ccccc1NC(=O)c1ccc(N[C@@H]2CCCN(CC3CCCCC3)CC2)cc1 (single isomer, unassigned) [Compound 85A]",2 to 3
3,"Nc1ccccc1NC(=O)c1ccc(N[C@H]2CCCN(CC3CCCCC3)CC2)cc1 (single isomer, unassigned) [Compound 85B]",2 to 3
4,"Nc1ccccc1NC(=O)c1ccc(OC2CCN(CC3CC3)CC2)cc1 [Compound 1, N-(2-aminophenyl)-4-((1-(cyclopropylmethyl)piperidin-4-yl)oxy)benzamide]",1 to 2
5,"CC(C)(O)CN1CCC(Oc2ccc(C(=O)Nc3ccccc3N)cc2)CC1 [Compound 2, N-(2-aminophenyl)-4-((1-(2-hydroxy-2-methylpropyl)piperidin-4-yl)oxy)benzamide]",1 to 2
6,"Nc1ccccc1NC(=O)c1ccc(NC2CCN(CC3CC3)CC2)cc1 [Compound 3, N-(2-aminophenyl)-4-((1-(cyclopropylmethyl)piperidin-4-yl)amino)benzamide]",1 to 2
7,"CC(C)(O)CN1CCC(Nc2ccc(C(=O)Nc3ccccc3N)cc2)CC1 [Compound 4, N-(2-aminophenyl)-4-((1-(2-hydroxy-2-methylpropyl)piperidin-4-yl)amino)benzamide]",1 to 2
8,"Nc1ccccc1NC(=O)c1ccc(OC2CCCNCC2)cc1 (stereo not shown) [Compound 33, N-(2-aminophenyl)-4-(azepan-4-yloxy)benzamide hydrochloride]",2 to 3
9,"CN1CCCC(Oc2ccc(C(=O)Nc3ccccc3N)cc2)CC1 (stereo not shown) [Compound 34, N-(2-aminophenyl)-4-((1-methylazepan-4-yl)oxy)benzamide bis(2,2,2-trifluoroacetate)]",1 to 2
10,"CC(C)CN1CCCC(Oc2ccc(C(=O)Nc3ccccc3N)cc2)CC1 (stereo not shown) [Compound 35, N-(2-aminophenyl)-4-((1-isobutylazepan-4-yl)oxy)benzamide dihydrochloride]",2 to 3
11,"CC(C)(O)CN1CCCC(Oc2ccc(C(=O)Nc3ccccc3N)cc2)CC1 (stereo not shown) [Compound 36, N-(2-aminophenyl)-4-((1-(2-hydroxy-2-methylpropyl)azepan-4-yl)oxy)benzamide dihydrochloride]",1 to 2
12,"CC(C)(C)CN1CCCC(Oc2ccc(C(=O)Nc3ccccc3N)cc2)CC1 (stereo not shown) [Compound 37, N-(2-aminophenyl)-4-((1-neopentylazepan-4-yl)oxy)benzamide]",2 to 3
13,"Nc1ccccc1NC(=O)c1ccc(OC2CCCN(CC3CC3)CC2)cc1 (stereo not shown) [Compound 38, N-(2-aminophenyl)-4-((1-(cyclopropylmethyl)azepan-4-yl)oxy)benzamide dihydrochloride]",2 to 3
14,"Nc1ccccc1NC(=O)c1ccc(O[C@H]2CCCN(CC3CC3)CC2)cc1 [Compound 38A, (S)-N-(2-aminophenyl)-4-((1-(cyclopropylmethyl)azepan-4-yl)oxy)benzamide]",< 1
15,"Nc1ccccc1NC(=O)c1ccc(O[C@@H]2CCCN(CC3CC3)CC2)cc1 [Compound 38B, (R)-N-(2-aminophenyl)-4-((1-(cyclopropylmethyl)azepan-4-yl)oxy)benzamide]",1 to 2
16,"CC1(CN2CCCC(Oc3ccc(C(=O)Nc4ccccc4N)cc3)CC2)CC1 (stereo not shown) [Compound 39, N-(2-aminophenyl)-4-((1-((1-methylcyclopropyl)methyl)azepan-4-yl)oxy)benzamide]",3 to 5
17,"Nc1ccccc1NC(=O)c1ccc(OC2CCCN(CC3CCCCC3)CC2)cc1 (stereo not shown) [Compound 40, N-(2-aminophenyl)-4-((1-(cyclohexylmethyl)azepan-4-yl)oxy)benzamide dihydrochloride]",3 to 5
18,"Nc1ccccc1NC(=O)c1ccc(OC2CNC2)cc1 [Compound 41, N-(2-aminophenyl)-4-(azetidin-3-yloxy)benzamide hydrochloride]",1 to 2
19,"CN1CC(Oc2ccc(C(=O)Nc3ccccc3N)cc2)C1 [Compound 42, N-(2-aminophenyl)-4-((1-methylazetidin-3-yl)oxy)benzamide]",1 to 2
20,"CC(C)CN1CC(Oc2ccc(C(=O)Nc3ccccc3N)cc2)C1 [Compound 43, N-(2-aminophenyl)-4-((1-isobutylazetidin-3-yl)oxy)benzamide dihydrochloride]",1 to 2
21,"CC(C)(O)CN1CC(Oc2ccc(C(=O)Nc3ccccc3N)cc2)C1 [Compound 44, N-(2-aminophenyl)-4-((1-(2-hydroxy-2-methylpropyl)azetidin-3-yl)oxy)benzamide dihydrochloride]",1 to 2
22,"CC(C)(C)CN1CC(Oc2ccc(C(=O)Nc3ccccc3N)cc2)C1 [Compound 45, dihydrochloride]",1 to 2
23,"Nc1ccccc1NC(=O)c1ccc(OC2CN(CC3CC3)C2)cc1 [Compound 46, N-(2-aminophenyl)-4-((1-(cyclopropylmethyl)azetidin-3-yl)oxy)benzamide dihydrochloride]",1 to 2
24,"CC1(CN2CC(Oc3ccc(C(=O)Nc4ccccc4N)cc3)C2)CC1 [Compound 47, N-(2-aminophenyl)-4-((1-((1-methylcyclopropyl)methyl)azetidin-3-yl)oxy)benzamide dihydrochloride]",1 to 2
25,"Nc1ccccc1NC(=O)c1ccc(OC2CN(CC3CCCCC3)C2)cc1 [Compound 48, N-(2-aminophenyl)-4-((1-(cyclohexylmethyl)azetidin-3-yl)oxy)benzamide dihydrochloride]",2 to 3
26,"Nc1ccccc1NC(=O)c1ccc(O[C@H]2CCNC2)cc1 [Compound 49, (S)-N-(2-aminophenyl)-4-(pyrrolidin-3-yloxy)benzamide hydrochloride]",2 to 3
27,"CN1CC[C@H](Oc2ccc(C(=O)Nc3ccccc3N)cc2)C1 [Compound 50, (S)-N-(2-aminophenyl)-4-((1-methylpyrrolidin-3-yl)oxy)benzamide dihydrochloride]",2 to 3
28,"CC(C)CN1CC[C@H](Oc2ccc(C(=O)Nc3ccccc3N)cc2)C1 [Compound 51, (S)-N-(2-aminophenyl)-4-((1-isobutylpyrrolidin-3-yl)oxy)benzamide dihydrochloride]",1 to 2
29,"CC(C)(O)CN1CC[C@H](Oc2ccc(C(=O)Nc3ccccc3N)cc2)C1 [Compound 52, (S)-N-(2-aminophenyl)-4-((1-(2-hydroxy-2-methylpropyl)pyrrolidin-3-yl)oxy)benzamide dihydrochloride]",1 to 2
30,"CC(C)(C)CN1CC[C@H](Oc2ccc(C(=O)Nc3ccccc3N)cc2)C1 [Compound 53, (S)-N-(2-aminophenyl)-4-((1-neopentylpyrrolidin-3-yl)oxy)benzamide]",1 to 2

# Same assay, conditions: iPSC, 24 h, read-out: FXN mRNA fold induction, compound concentration of 0.625 μM, 24 h incubation
row,SMILES,fold induction at 0.625 µM
1,"CN(c1ccc(C(=O)Nc2ccccc2N)cc1)C1CCN(CC2CC2)CC1 [Compound 5, N-(2-aminophenyl)-4-((1-(cyclopropylmethyl)piperidin-4-yl)(methyl)amino)benzamide]",2 to 3
2,"CN(c1ccc(C(=O)Nc2ccccc2N)cc1)C1CCN(CC(C)(C)O)CC1 [Compound 6, N-(2-aminophenyl)-4-((1-(2-hydroxy-2-methylpropyl)piperidin-4-yl)(methyl)amino) benzamide]",2 to 3
3,"CCN(c1ccc(C(=O)Nc2ccccc2N)cc1)C1CCN(CC2CC2)CC1 [Compound 26, N-(2-aminophenyl)-4-((1-(cyclopropylmethyl)piperidin-4-yl)(ethyl)amino)benzamide Trihydrochloride]",2 to 3
4,"CCN(c1ccc(C(=O)Nc2ccccc2N)cc1)C1CCN(CC(C)(C)O)CC1 [Compound 27, N-(2-aminophenyl)-4-(ethyl(1-(2-hydroxy-2-methylpropyl)piperidin-4-yl)amino)benzamide Trihydrochloride]",2 to 3
5,"Nc1ccccc1NC(=O)c1ccc(N(CC2CC2)C2CCN(CC3CC3)CC2)cc1 [Compound 28, N-(2-aminophenyl)-4-((cyclopropylmethyl)(1-(cyclopropylmethyl)piperidin-4-yl)amino)benzamide Trihydrochloride]",2 to 3
6,"CC(C)(O)CN1CCC(N(CC2CC2)c2ccc(C(=O)Nc3ccccc3N)cc2)CC1 [Compound 29, N-(2-aminophenyl)-4-((cyclopropylmethyl)(1-(2-hydroxy-2-methylpropyl)piperidin-4-yl)amino)benzamide Trihydrochloride]",1 to 2
